For one assay, the system named is niacin receptor. Put plainly: Upregulation of GURC-modified niacin receptor (luciferase assay). In kind it is cell-based. The note with it: FIG. 15A.
In the next assay the test system is β2 adrenergic receptor. Kind of assay: Upregulation of GURC-modified β2 adrenergic receptor (luciferase assay). The assay is classed as cell-based. The note with it: FIG. 15B.
The subject of the next assay is histamine receptor H3. Particulars: FIG. 14.

Sequence of histamine receptor H3 (as listed by the source): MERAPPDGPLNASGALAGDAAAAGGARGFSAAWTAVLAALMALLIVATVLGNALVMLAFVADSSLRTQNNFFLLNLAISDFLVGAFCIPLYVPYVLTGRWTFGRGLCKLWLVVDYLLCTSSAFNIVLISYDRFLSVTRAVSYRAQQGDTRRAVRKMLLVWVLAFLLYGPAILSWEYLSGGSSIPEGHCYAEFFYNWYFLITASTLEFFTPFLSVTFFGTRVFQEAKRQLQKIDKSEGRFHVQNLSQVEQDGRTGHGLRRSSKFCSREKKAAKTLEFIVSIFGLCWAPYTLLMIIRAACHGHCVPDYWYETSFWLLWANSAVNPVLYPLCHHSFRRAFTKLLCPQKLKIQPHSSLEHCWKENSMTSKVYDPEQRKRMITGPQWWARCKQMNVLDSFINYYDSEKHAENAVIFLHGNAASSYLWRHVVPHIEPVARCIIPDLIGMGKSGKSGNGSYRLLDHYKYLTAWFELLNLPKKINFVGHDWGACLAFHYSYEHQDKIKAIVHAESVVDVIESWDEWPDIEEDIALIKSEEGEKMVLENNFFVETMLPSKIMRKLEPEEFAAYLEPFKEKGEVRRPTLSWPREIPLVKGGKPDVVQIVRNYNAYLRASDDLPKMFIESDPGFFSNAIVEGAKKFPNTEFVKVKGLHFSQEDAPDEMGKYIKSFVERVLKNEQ

Turning to `Nc1ncnc2c1ncn2[C@@H]1O[C@H](COP(=O)(O)OP(=O)(O)OC[C@@H]2O[C@H]([n+]3cccc(C(=O)[O-])c3)[C@@H](O)[C@H]2O)[C@@H](O)[C@H]1OP(=O)(O)O` [NAADP-β], in the assay on niacin receptor, the “upregulation of the niacin receptor” value is given as “dose-dependent upregulation”. Also, the “upregulation of the β2 adrenergic receptor” value with β2 adrenergic receptor is “lack of dose-dependent upregulation”. For `COC(=O)c1cccnc1` [methyl nicotinate] the same measures were “dose-dependent upregulation” and “lack of dose-dependent upregulation”. Consider Methyl histamine, for which the “potency at histamine receptor H3” value in the assay with histamine receptor H3 is recorded as “low potency”.

The record behind these values is patent US20080009551A1, “Methods and Compositions for Identifying Modulators of G Protein-Coupled Receptors” (Arena Pharmaceuticals, Inc., priority 2003, published 2008).
